{"source": "patent US20180140578A1", "about": "“METHODS AND COMPOSITIONS FOR THE DIAGNOSIS AND SELECTIVE TREATMENT OF CANCER” (Board of Regents of the University of Texas System, priority 2016, published 2018)", "key": {"RBM39 mRNA": {"tested_on": "RBM39 mRNA", "test": "qPCR quantification of RBM39 mRNA", "type": "cell-based, human", "settings": "HCT-116 cells after indisulam treatment", "procedure": "RNAs isolated from indisulam or siRNA treated cells were first treated with Turbo DNase (Life Technologies) to remove contaminating genomic DNA. After RNA cleanup with Quick-RNA MiniPrep kit (Zymo Research), 500 ng of total RNAs was converted into cDNAs with Multiscribe reverse transcriptase (Life Technologies). Exon skipping in TRIM27 was visualized by PCR amplification with 5′-[…]-3′ (SEQ ID NO: 3) and 5′-[…]-3′ (SEQ ID NO: 4) from cDNAs. […] Relative RNA levels were calculated based on 2^−ct method using Cyclophilin mRNA for normalization. The following primers were used for quantification of mRNA levels: […]\nFor measurement of RBM39 mRNA levels, the following primers were used: […]"}, "[1]": {"target": "T1, DDB1:DCAF15-GST and RBM39Δ150 (Homo sapiens, UniProt Q14498+Q66K64)", "T1 construct": "made in house; host or cells: Sf9 (baculovirus)", "T1 sequence (Q66K64 whole entry, stated change not applied)": "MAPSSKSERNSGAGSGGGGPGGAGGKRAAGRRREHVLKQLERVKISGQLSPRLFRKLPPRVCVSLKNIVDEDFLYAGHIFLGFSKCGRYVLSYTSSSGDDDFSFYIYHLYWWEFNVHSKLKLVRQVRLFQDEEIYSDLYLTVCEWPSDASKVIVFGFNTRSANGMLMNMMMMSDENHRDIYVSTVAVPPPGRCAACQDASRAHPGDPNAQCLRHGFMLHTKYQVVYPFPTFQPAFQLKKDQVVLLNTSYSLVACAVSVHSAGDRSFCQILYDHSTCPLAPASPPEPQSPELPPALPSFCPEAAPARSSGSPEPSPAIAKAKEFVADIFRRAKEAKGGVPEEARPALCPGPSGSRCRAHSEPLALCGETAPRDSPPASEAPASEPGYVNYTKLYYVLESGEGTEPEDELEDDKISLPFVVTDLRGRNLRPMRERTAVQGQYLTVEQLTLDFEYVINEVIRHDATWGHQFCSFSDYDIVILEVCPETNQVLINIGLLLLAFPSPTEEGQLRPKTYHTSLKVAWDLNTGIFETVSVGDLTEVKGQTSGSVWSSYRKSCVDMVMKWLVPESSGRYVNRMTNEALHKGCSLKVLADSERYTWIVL", "T1 sequence (Q14498 151-530 limits assumed, stated change not applied)": "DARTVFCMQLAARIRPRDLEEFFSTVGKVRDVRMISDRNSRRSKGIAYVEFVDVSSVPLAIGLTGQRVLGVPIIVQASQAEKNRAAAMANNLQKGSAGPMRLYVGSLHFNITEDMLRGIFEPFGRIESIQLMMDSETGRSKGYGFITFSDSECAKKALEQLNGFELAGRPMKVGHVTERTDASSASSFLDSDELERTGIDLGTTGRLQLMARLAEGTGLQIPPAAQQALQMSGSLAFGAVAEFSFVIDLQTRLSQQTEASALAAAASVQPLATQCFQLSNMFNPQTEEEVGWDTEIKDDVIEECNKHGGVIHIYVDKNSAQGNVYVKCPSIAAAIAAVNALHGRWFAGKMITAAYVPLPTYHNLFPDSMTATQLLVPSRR", "T1 sequence (Q16531 whole entry partner)": "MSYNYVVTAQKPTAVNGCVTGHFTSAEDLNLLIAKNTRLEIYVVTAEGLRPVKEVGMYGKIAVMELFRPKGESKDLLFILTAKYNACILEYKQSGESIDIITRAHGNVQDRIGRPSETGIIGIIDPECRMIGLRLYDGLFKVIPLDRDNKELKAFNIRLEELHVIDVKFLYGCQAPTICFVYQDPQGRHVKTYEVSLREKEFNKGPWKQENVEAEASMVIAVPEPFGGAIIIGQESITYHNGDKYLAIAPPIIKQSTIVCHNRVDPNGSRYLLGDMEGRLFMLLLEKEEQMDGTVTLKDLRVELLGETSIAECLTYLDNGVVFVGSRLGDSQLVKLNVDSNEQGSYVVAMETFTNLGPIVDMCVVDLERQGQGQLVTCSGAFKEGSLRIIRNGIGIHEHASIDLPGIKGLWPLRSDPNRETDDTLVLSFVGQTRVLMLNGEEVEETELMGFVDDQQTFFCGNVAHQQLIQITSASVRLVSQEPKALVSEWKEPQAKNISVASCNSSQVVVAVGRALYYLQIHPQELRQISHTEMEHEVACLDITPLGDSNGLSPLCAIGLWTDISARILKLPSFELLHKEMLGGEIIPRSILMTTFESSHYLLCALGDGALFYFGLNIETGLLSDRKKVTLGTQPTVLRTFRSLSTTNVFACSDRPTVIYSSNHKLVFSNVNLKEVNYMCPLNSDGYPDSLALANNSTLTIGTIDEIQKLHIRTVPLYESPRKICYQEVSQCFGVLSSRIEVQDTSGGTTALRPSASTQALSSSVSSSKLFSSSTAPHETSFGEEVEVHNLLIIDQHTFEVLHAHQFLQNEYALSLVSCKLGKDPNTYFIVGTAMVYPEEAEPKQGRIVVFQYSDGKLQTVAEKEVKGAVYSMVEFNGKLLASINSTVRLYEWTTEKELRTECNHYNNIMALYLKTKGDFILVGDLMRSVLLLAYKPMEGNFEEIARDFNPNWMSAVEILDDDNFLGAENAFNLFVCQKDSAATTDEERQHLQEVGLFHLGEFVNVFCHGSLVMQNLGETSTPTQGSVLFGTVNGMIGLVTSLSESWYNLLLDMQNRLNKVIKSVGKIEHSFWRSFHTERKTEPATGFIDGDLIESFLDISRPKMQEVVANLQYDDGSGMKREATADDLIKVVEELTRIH", "test": "Indisulam dependent co-fractionation of DCAF15-DDB1 and RBM39 (size exclusion chromatography)", "type": "binding", "settings": "10 μM indisulam", "procedure": "RBM39 lacking the first 150 amino acids after the start codon (RBM39Δ150) was cloned into the pFastBac1 (Life Technologies) vector. Site-directed Mutagenesis of RBM39 was performed using Q5 site-directed mutagenesis kit (NEB). DCAF15-GST (C-terminal GST tag) and DDB1 were also cloned into pFastBac1. The production of baculovirus was carried out following vendor's instructions. Protein was expressed in SF9 cells by infection with each protein specific baculovirus, and cells were harvested 48 hr later and frozen in liquid nitrogen. For purification of RBM39Δ150, frozen cells were pulverized by cryomill and resuspended in lysis buffer (40 mM Tris, pH 7.5, 225 mM NaCl, 1× […] Protease inhibitor). The lysate was passed through a 22 gauge needle 2 times followed by ultracentrifugation at 25000 rpm for 30 min. Clarified lysate was incubated with Ni-NTA agarose (Qiagen) for 30 min with rotation at 4° C. Resin and bound protein were washed with wash buffer 1 (40 mM Tris, pH 7.5, 225 mM NaCl) followed by wash buffer 2 (40 mM Tris, pH 7.5, 20 mM imidazole, 225 mM NaCl). Proteins were eluted with elution buffer (40 mM Tris, pH 7.5, 300 mM imidazole, 225 mM NaCl) and concentrated to 0.5 ml. […]\nThe mixture was incubated for 1 hour with rotation at 4° C. […] 1 ml fractions were collected and analyzed by SDS-PAGE and coomassie blue staining."}, "[2]": {"tested_on": "pre-mRNA splicing in HCT-116 cells", "test": "RNA-seq analysis of splicing changes, parental HCT-116", "type": "cell-based, human", "settings": "2 μM indisulam", "description": "RNAs were extracted using Quick-RNA MiniPrep kit (Zymo Research). After cleaning up genomic DNA contaminant with Turbo DNase (Life Technologies) and rRNA depletion, strand-specific cDNA libraries were generated using the TruSeq Stranded mRNA Sample Prep Kit (IIlumina) and were subjected to high throughput sequencing using\nHiSeq2500 platform (Illumina) with 100-bp single-end reads. NGS QC Toolkit (v2.3.1) (49) was used to check the sequencing quality, and high-quality reads were aligned by TopHat (v2.0.8) (50) to human reference genome (hg19) along with the gene annotation data downloaded from Illumina's iGenomes (support.illumina.com/sequencing/sequencing_software/igenome.ilmn). The insert-size metrics required in TopHat execution and the correctness of strand specificity were estimated by mapping reads to human transcript sequences using Bowtie (v2.1.0) (51) and Picard-tools (v1.99) (picard.sourceforge.net). The htseq-count script distributed with the HTSeq Python package (0.6.1) (pypi.python.org/pypi/HTSeq) was employed for counting reads in genes considering the coding strands. Source data for RNA sequencing data is available under NCBI SRA accession SRP096666.\nFor the stringent detection of differential skipped exons and retained introns, a custom program called SpliceFisher was developed and it is downloadable at github.com/jiwoongbio/SpliceFisher. Exonic and intronic regions were defined as annotated in the reference genome. To estimate differential exon skipping events, the numbers of exon-junction reads (panels a and b in FIG. 16) and exon-skipping reads (panel c in FIG. 16) observed in a sample were compared to the numbers observed in another sample. […] Additionally, the number of reads mapped to the target region (panel d in FIG. 16) and other exonic regions of the gene (panel e in FIG. 16) were also compared between samples. The read counts were evaluated by multiple Fisher's exact tests in three two-by-two tables using R and then the p-values were adjusted using FDR by each comparison type. Differential alternative splicing events were identified with all three adjusted p-values less than 0.01. The differential alternative splice sites and mutually exclusive exons were additionally detected by a similar method using the numbers of splicing reads supporting each junction."}, "RBM39-3xFLAG": {"target": "T2, RBM39-3xFLAG (Homo sapiens, UniProt Q14498+Q66K64)", "T2 construct": "expressed in transfected cells; host or cells: 293T", "test": "In vivo polyubiquitination of RBM39", "type": "cell-based", "settings": "DCAF15 co-expressed; 293T cells", "procedure": "cDNAs encoding RBM39-3xFLAG, RBM39 G268V-3xFLAG, and DCAF15-V5 were cloned into the pCDNA3.1+vector. pCMV 8XHis Ub was a gift from William Kaelin (Dana Farber Cancer Institute). 0.4 million 293T cells were seeded per well on 6-well plates and allowed to attach overnight. 250 ng of pCMV 8XHis Ub, 500 ng of pCDNA3-DCAF15-V5, 10 ng of either pCDNA3-RBM39-3xFLAG or pCDNA3-RBM39 G268V-3xFLAG were transfected. […] Cells were lifted from the plates by pipetting, pelleted by centrifugation, and washed once with PBS. Purification of His-Ub tagged proteins was performed as described (5)."}}}
{"compound": "NS(=O)(=O)c1ccc(S(=O)(=O)Nc2cccc3c(Cl)c[nH]c23)cc1", "note": "[Indisulam, indisulam]", "values": [{"measurement": "RBM39 mRNA", "setting": "RBM39 mRNA", "value": "no dose dependent decrease"}, {"measurement": "elution of RBM39Δ150 with DDB1:DCAF15-GST peak", "setting": "[1]", "value": "co-elutes"}, {"measurement": "exon skipping events", "setting": "[2]; 6 hours", "value": 327}, {"measurement": "introns retained", "setting": "[2]; 6 hours", "value": 107}, {"measurement": "exon skipping events", "setting": "[2]; 12 hours", "value": 837}, {"measurement": "introns retained", "setting": "[2]; 12 hours", "value": 303}, {"measurement": "RBM39 ubiquitination", "setting": "RBM39-3xFLAG", "value": "increased RBM39 ubiquitination"}]}
